We go through 24 compounds from patent publication US20240182453A1, “NOVEL SUBSTITUTED PYRAZINE-CARBOXAMIDE DERIVATIVES” (Boehringer Ingelheim International GmbH, priority 2022, published 2024).

A word on the pIC50: it is the negative decadic logarithm of the IC50, by convention in mol/L.

SMILES strings stand for the structures. pIC50: −log10 of the molar value.

For this test, the target named is human metabotropic Glutamate 4 receptor (mGluR4) (Homo sapiens (Human), UniProt Q14833). Description: Assay A: in vitro testing of mGluR4 potency (glutamate-induced cAMP lowering, HTRF cAMP). The class given is cell-based. The conditions noted are these: HEK293 cells overexpressing human mGluR4; 10 uM L-glutamic acid, 1 uM forskolin; compounds of the present invention. In short, it runs like this: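 HEK293 cells overexpressing human mGluR4 treated 30 min at room temperature with compound plus 10 uM L-glutamate, 1 uM forskolin, 0.5 mM IBMX, 0.1% BSA, 1% DMSO. cAMP read by HTRF (665/615 nm ratio), normalized to glutamate (100%) and no-glutamate (0%) controls as percent of control.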
Sequence of human metabotropic Glutamate 4 receptor (mGluR4) (Q14833 33-912): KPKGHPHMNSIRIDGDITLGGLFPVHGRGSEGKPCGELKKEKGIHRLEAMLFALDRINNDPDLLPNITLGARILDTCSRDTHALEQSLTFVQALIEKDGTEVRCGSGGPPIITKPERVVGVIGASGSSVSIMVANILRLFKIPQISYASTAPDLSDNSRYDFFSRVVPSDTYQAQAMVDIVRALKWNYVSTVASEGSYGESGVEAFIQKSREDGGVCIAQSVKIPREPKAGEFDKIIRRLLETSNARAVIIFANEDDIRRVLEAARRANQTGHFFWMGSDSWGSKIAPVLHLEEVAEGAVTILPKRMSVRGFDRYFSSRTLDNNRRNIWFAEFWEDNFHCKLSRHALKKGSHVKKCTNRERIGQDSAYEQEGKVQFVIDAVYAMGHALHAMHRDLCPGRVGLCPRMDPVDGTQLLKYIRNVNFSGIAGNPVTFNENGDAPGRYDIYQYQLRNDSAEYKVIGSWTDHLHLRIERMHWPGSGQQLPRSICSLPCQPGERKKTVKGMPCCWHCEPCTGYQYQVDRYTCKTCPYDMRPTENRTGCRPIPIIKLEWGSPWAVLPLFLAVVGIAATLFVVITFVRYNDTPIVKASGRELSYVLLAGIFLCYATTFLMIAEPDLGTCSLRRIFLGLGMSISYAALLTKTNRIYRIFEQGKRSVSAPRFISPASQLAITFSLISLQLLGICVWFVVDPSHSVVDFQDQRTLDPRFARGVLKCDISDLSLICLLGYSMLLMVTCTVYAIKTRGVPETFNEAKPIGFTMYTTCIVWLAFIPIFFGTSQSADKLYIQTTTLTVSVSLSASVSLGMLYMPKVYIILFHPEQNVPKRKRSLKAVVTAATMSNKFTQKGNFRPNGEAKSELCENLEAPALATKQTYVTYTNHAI
(In general: TR-FRET usually uses a lanthanide donor and a delayed reading to cut background.)
Compound `COCCn1c([C@@H](NC(=O)c2cnc(C(F)(F)F)cn2)[C@@H](C)OC)nc2cc(OC(F)(F)F)ccc21` [Example 124, N-[(1R,2R)-2-methoxy-1-[1-(2-methoxyethyl)-5-(trifluoromethoxy)-1H-1,3-benzodiazol-2-yl]propyl]-5-(trifluoromethyl)pyrazine-2-carboxamide] gave a pIC50 of 8.40.
Next, `Cc1cnc(C(=O)N[C@@H](CC2CC2)c2nc3cc(Cl)ccc3n2CCOC(F)F)cn1` [Example 125, N-[(1S)-1-{5-chloro-1-[2-(difluoromethoxy)ethyl]-1H-1,3-benzodiazol-2-yl}-2-cyclopropylethyl]-5-methylpyrazine-2-carboxamide]: 8.15; `COCCn1c([C@@H](NC(=O)c2cnc(C)cn2)C(C)(C)O)nc2cc(C(F)(F)F)ccc21` [Example 126, N-[(1R)-2-hydroxy-1-[1-(2-methoxyethyl)-5-(trifluoromethyl)-1H-1,3-benzodiazol-2-yl]-2-methylpropyl]-5-methylpyrazine-2-carboxamide]: 7.85; `CCn1c([C@@H](NC(=O)c2cnc(C)cn2)C2CC(F)(F)C2)nc2cc(F)ccc21` [Example 127, N-[(S)-(3,3-difluorocyclobutyl)(1-ethyl-5-fluoro-1H-1,3-benzodiazol-2-yl)methyl]-5-methylpyrazine-2-carboxamide]: 8.10.
For the compound `Cc1cnc(C(=O)N[C@@H](CC2CC2)c2nc3cc(F)c(F)cc3n2CCOC(F)F)cn1` [Example 128, N-[(1S)-2-cyclopropyl-1-{1-[2-(difluoromethoxy)ethyl]-5,6-difluoro-1H-1,3-benzodiazol-2-y1}ethyl]-5-methylpyrazine-2-carboxamide], the pIC50 was 8.10.
As for `COC[C@@H](C)n1c([C@@H](NC(=O)c2cnc(C)cn2)[C@@H](C)OC)nc2cc(OC(F)(F)F)ccc21` [Example 129, N-[(1R,2R)-2-methoxy-1-{1-[(2R)-1-methoxypropan-2-yl]-5-(trifluoromethoxy)-1H-1,3-benzodiazol-2-yl}propyl]-5-methylpyrazine-2-carboxamide], the figure is 8.05; as for `COCCCn1c([C@@H](NC(=O)c2cnc(C)cn2)[C@@H](C)OC)nc2cc(OC(F)(F)F)ccc21` [Example 130, N-[(1R,2R)-2-methoxy-1-[1-(3-methoxypropyl)-5-(trifluoromethoxy)-1H-1,3-benzodiazol-2-yl]propyl]-5-methylpyrazine-2-carboxamide], 7.89.
`CO[C@H](C)[C@H](NC(=O)c1cnc(C)cn1)c1nc2cc(OC(F)(F)F)ccc2n1C1CC1` [Example 131, N-[(1R,2R)-1-[1-cyclopropyl-5-(trifluoromethoxy)-1H-1,3-benzodiazol-2-yl]-2-methoxypropyl]-5-methylpyrazine-2-carboxamide]: the pIC50 was 7.85. This pIC50 and that of the compound before are within 0.2 log units of each other.
In turn, `Cc1cnc(C(=O)N[C@H](c2nc3ccc(C(F)(F)F)cc3n2CC(F)F)C2CC2)cn1` [Example 138, N-[(S)-cyclopropyl[1-(2,2-difluoroethyl)-6-(trifluoromethyl)-1H-1,3-benzodiazol-2-yl]methyl]-5-methylpyrazine-2-carboxamide] gave a pIC50 of 8.52.
As for `CCn1c([C@@H](NC(=O)c2cnc(C)cn2)[C@@H]2CCOC2)nc2cc(C(F)(F)F)ccc21` [Example 140, N-[(S)-[1-ethyl-5-(trifluoromethyl)-1H-1,3-benzodiazol-2-yl][(3S)-oxolan-3-yl]methyl]-5-methylpyrazine-2-carboxamide], the figure is 7.92.
Consider `Cc1cnc(C(=O)N[C@H](c2nc3cc(C(F)(F)F)ccc3n2CC(F)F)[C@H]2CCOC2)cn1` [Example 142, N-[(S)-[1-(2,2-difluoroethyl)-5-(trifluoromethyl)-1H-1,3-benzodiazol-2-yl][(3R)-oxolan-3-yl]methyl]-5-methylpyrazine-2-carboxamide], for which the negative logarithm of the IC50 (pIC50) was 8.10.
Next, `CCn1c([C@@H](NC(=O)c2cnc(C)cn2)[C@H]2CCOC2)nc2cc(F)ccc21` [Example 144, N-[(S)-(1-ethyl-5-fluoro-1H-1,3-benzodiazol-2-yl)[(3R)-oxolan-3-yl]methyl]-5-methylpyrazine-2-carboxamide]: 7.39.
Next, `Cc1cnc(C(=O)N[C@H](c2nc3ccc(C(F)(F)F)cc3n2CC(F)F)[C@@H]2CCOC2)cn1` [Example 145, N-[(S)-[1-(2,2-difluoroethyl)-6-(trifluoromethyl)-1H-1,3-benzodiazol-2-yl][(3S)-oxolan-3-yl]methyl]-5-methylpyrazine-2-carboxamide]: 7.39; `CCn1c([C@@H](NC(=O)c2cnc(C)cn2)[C@]2(O)CCCOC2)nc2cc(C(F)(F)F)ccc21` [Example 149, N-[(R)-[1-ethyl-5-(trifluoromethyl)-1H-1,3-benzodiazol-2-yl][(3R)-3-hydroxyoxan-3-yl]methyl]-5-methylpyrazine-2-carboxamide]: 8.52; `CCn1c([C@@H](NC(=O)c2cnc(C)cn2)[C@]2(O)CCCOC2)nc2cc(F)ccc21` [Example 150, N-[(R)-(1-ethyl-5-fluoro-1H-1,3-benzodiazol-2-yl)[(3R)-3-hydroxyoxan-3-yl]methyl]-5-methylpyrazine-2-carboxamide]: 7.85.
As for `Cc1cnc(C(=O)N[C@H](c2nc3cc(F)ccc3n2CC(F)F)[C@]2(O)CCCOC2)cn1` [Example 151, N-[(R)-[1-(2,2-difluoroethyl)-5-fluoro-1H-1,3-benzodiazol-2-yl][(3R)-3-hydroxyoxan-3-yl]methyl]-5-methylpyrazine-2-carboxamide], the figure is 7.24; as for `CCn1c([C@@H](NC(=O)c2cnc(C)cn2)[C@]2(O)CCCOC2)nc2ccc(C(F)(F)F)cc21` [Example 152, N-[(R)-[1-ethyl-6-(trifluoromethyl)-1H-1,3-benzodiazol-2-yl][(3R)-3-hydroxyoxan-3-yl]methyl]-5-methylpyrazine-2-carboxamide], 7.85; as for `CCn1c([C@@H](NC(=O)c2cnc(C)cn2)[C@]2(O)CCCOC2)nc2ccc(F)cc21` [Example 153, N-[(R)-(1-ethyl-6-fluoro-1H-1,3-benzodiazol-2-yl)[(3R)-3-hydroxyoxan-3-yl]methyl]-5-methylpyrazine-2-carboxamide], 7.52.
On to `CCn1c([C@@H](NC(=O)c2cnc(C)cn2)[C@]2(O)CCOC2)nc2cc(Cl)ccc21` [Example 154, N-[(R)-(5-chloro-1-ethyl-1H-1,3-benzodiazol-2-yl)[(3R)-3-hydroxyoxolan-3-yl]methyl]-5-methylpyrazine-2-carboxamide], for which the pIC50 is 7.08.
Next, `CCn1c([C@@H](NC(=O)c2cnc(C)cn2)[C@]2(O)CCOC2)nc2ccc(C(F)(F)F)cc21` [Example 155, N-[(R)-[1-ethyl-6-(trifluoromethyl)-1H-1,3-benzodiazol-2-yl][(3R)-3-hydroxyoxolan-3-yl]methyl]-5-methylpyrazine-2-carboxamide]: 7.20; `CCn1c([C@@H](NC(=O)c2cnc(C)cn2)[C@]2(O)CCOC2)nc2cc(C(F)(F)F)ccc21` [Example 156, N-[(R)-[1-ethyl-5-(trifluoromethyl)-1H-1,3-benzodiazol-2-yl][(3R)-3-hydroxyoxolan-3-yl]methyl]-5-methylpyrazine-2-carboxamide]: 7.41.
As for `Cc1cnc(C(=O)N[C@H](c2nc3ccc(Cl)cc3n2CC(F)F)C2CC2)cn1` [Example 157, N-[(S)-[6-chloro-1-(2,2-difluoroethyl)-1H-1,3-benzodiazol-2-yl](cyclopropyl)methyl]-5-methylpyrazine-2-carboxamid], the figure is 8.22.
As for `Cc1cnc(C(=O)N[C@H](c2nc3cc(Cl)ccc3n2CC(F)F)C2CC2)cn1` [Example 158, N-[(S)-[5-chloro-1-(2,2-difluoroethyl)-1H-1,3-benzodiazol-2-yl](cyclopropyl)methyl]-5-methylpyrazine-2-carboxamide], the figure is 8.52; as for `CCn1c([C@@H](NC(=O)c2cnc(C)cn2)[C@@]2(O)CCOC2)nc2cc(C(F)(F)F)ccc21` [Example 167, N-[(R)-[1-ethyl-5-(trifluoromethyl)-1H-1,3-benzodiazol-2-yl][(3S)-3-hydroxyoxolan-3-yl]methyl]-5-methylpyrazine-2-carboxamide], 7.26.
